Results as given in patent publication US20120010266A1, “TBC1D7 AS TUMOR MARKER AND THERAPEUTIC TARGET FOR CANCER” (Oncotherapy Science Inc.,, priority 2008, published 2012).
Where two headings read alike, the source gives them in different places. No end group written: not given here.

T1: endogenous TSC1 protein (human, lung cancer LC319 cells) (human, UniProt Q92574 1-1164, limits assumed)
T1 construct: Endogenous protein in LC319 cell extracts
T1 sequence: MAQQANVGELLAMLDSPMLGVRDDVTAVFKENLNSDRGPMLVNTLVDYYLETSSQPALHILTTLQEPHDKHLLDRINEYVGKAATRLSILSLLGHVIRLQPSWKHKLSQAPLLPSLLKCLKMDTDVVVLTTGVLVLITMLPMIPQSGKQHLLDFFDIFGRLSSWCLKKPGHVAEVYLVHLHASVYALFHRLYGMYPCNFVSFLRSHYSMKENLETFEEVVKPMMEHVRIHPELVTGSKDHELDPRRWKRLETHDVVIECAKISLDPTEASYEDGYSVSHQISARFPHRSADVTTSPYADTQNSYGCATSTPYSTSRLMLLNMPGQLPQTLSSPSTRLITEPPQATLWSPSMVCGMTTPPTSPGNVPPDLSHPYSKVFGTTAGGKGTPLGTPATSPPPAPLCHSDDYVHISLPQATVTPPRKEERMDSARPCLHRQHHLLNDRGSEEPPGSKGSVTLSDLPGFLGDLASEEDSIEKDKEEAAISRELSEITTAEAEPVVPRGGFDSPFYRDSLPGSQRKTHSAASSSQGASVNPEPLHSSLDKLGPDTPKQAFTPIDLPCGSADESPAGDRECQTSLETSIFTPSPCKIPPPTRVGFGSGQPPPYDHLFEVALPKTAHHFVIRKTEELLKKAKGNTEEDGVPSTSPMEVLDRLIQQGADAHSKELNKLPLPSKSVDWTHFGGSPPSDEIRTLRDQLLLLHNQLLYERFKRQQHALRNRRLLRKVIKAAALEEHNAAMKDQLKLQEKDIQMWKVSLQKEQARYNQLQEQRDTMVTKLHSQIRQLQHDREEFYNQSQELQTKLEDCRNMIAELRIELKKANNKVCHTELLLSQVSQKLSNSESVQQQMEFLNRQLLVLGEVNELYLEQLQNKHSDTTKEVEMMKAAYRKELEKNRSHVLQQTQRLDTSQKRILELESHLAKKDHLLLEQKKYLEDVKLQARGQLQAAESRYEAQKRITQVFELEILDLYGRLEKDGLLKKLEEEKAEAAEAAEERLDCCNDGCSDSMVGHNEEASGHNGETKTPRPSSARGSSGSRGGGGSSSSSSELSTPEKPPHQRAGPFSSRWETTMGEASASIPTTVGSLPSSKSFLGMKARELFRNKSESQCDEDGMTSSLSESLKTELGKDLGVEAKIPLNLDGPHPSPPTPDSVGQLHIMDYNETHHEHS


What was measured:
lung cancer LC319 cells [1] = experiment: Dominant-negative peptide assay, MTT, LC319 cells; assay type: cell-based, human; settings: peptide 10, 15 or 20 microM for 3 days
From the text: (§1) Twenty-amino-acid sequence derived from minimized TSC1-binding domain in TBC1D7 (codons 112-171; see FIG. 5B) was covalently linked at its N-terminus to a membrane transducing 11 poly-arginine sequence (11R) as described elsewhere (Hayama S, Daigo Y, Kato T, et al. Cancer Res 2006; 66:10339-48, Hayama S, Daigo Y, Yamabuki T, et al. Cancer Res 2007; 67:4113-22). Three dominant-negative peptides were synthesized covering the codons 112-171 region: 11R-TBC112-131, RRRRRRRRRRR-GGG-[…] (SEQ ID NO.:23); 11R-TBC132-151, RRRRRRRRRRR-GGG-[…] (SEQ ID NO.:24); 11R-TBC152-171 RRRRRRRRRRR-GGG-[…] (SEQ ID NO.:25). Peptides were purified by preparative reverse-phase high-performance liquid chromatography to make >95% purity. […] The viability of cells was evaluated by MTT assay at 3 days after the treatment.

[2] = system: LC319 and A549 cell lines; experiment: MTT assay of lung cancer cells transfected with siRNAs against TBC1D7; assay type: cell-based, human; settings: 7 days after transfection, siRNA 100 nM
Method: (§2) Small interfering RNA (siRNA) duplexes (Dharmacon, Inc.) (100 nM) were transfected into a NSCLC cell line, A549 and esophageal cancer cell line, TE9, using […] Lipofectamine 2000 (Invitrogen) following the manufacturer's protocol. The transfected cells were cultured for 7 days, and the number of colonies was counted by Giemsa staining, and viability of cells was evaluated by 3-(4,5-dimethylthiazol-2-yl)-2,5-diphenyltetrazolium bromide (MTT) assay (cell counting kit-8 solution; Dojindo Laboratories), at 7 days after transfection. To confirm suppression of TBC1D7 expression, semiquantitative RT-PCR was carried out with synthesized primers specific for TBC1D7 described above. SiRNA duplexes against human TBC1D7, si-TBC1D7-#1: siGenome duplexes 1 [D-021140-01: […]] (SEQ ID NO: 3 for target sequence SEQ ID NO.: 18) and si-TBC1D7-#2: siGenome duplexes 4 [D-021140-4: […]] […]
(§3) Small interfering RNA (siRNA) duplexes (100 nM) were transfected into a NSCLC cell line, A549 and LC319, using 24 microL of Lipofectamine 2000 (Invitrogen) following the manufacturer's protocol. The transfected cells were cultured for 7 days, and the number of colonies was counted by Giemsa staining, and viability of cells was evaluated by 3-(4,5-dimethylthiazol-2-yl)-2,5-diphenyltetrazolium bromide (MTT) assay (cell counting kit-8 solution; Dojindo Laboratories), at 7 days after transfection. […]

TBC1D7 = experiment: RNA interference assay: knockdown of TBC1D7 expression, semiquantitative RT-PCR; assay type: cell-based, human; settings: LC319 and A549 cells; siRNA duplexes 100 nM transfected; versus control siRNAs (si-EGFP, si-LUC)
Method: Total RNA was extracted from cultured cells and clinical tissues using Trizol reagent (Life Technologies, Inc.) according to the manufacturer's protocol. Extracted RNAs were treated with DNase I (Nippon Gene) and reversely-transcribed using oligo (dT) primer and SuperScript II reverse transcriptase (Invitrogen). […]
Small interfering RNA (siRNA) duplexes (Dharmacon, Inc.) (100 nM) were transfected into a NSCLC cell line, A549 and esophageal cancer cell line, TE9, using […] Lipofectamine 2000 (Invitrogen) following the manufacturer's protocol. The transfected cells were cultured for 7 days, and the number of colonies was counted by Giemsa staining, and viability of cells was evaluated by 3-(4,5-dimethylthiazol-2-yl)-2,5-diphenyltetrazolium bromide (MTT) assay (cell counting kit-8 solution; Dojindo Laboratories), at 7 days after transfection. […]
as §3

[3] = system: LC319 and A549 cell lines; experiment: Colony formation assay (Giemsa staining) of lung cancer cells transfected with siRNAs against TBC1D7; assay type: cell-based, human; settings: cultured 7 days after transfection, siRNA 100 nM
Method: as §2, §3

[4] = system: normal human lung fibroblast-derived CCD19Lu cells; assay type: cell-based; settings: CCD19Lu cells in which TBC1D7 expression was hardly detectable, peptide 10, 15 or 20 microM for 3 days
From the text: as §1

lung cancer LC319 cells [5] = experiment: Flow cytometric cell cycle analysis after si-TBC1D7 transfection; assay type: cell-based, human; settings: 48 to 96 hours after transfection
Method: Cells were collected in PBS, and fixed in 70% cold ethanol for 30 minutes. After treatment with 100 micro g/mL RNase (Sigma/Aldrich, St. Louis, Mo.), the cells were stained with 50 micro g/mL propidium iodide (Sigma/Aldrich, St. Louis, Mo.) in PBS. Flow cytometry was done on a Becton Dickinson FACScan and analyzed by ModFit software (Verity Software House, Inc., Topsham, Me.). The cells selected from at least 10,000 ungated cells were analyzed for DNA content.

[6] = target: T1, endogenous TSC1 protein (human, lung …); experiment: summary of the immunoprecipitation results in the discussion

| Molecule | cell viability / cell growth, MTT assay (lung cancer LC319 cells [1]) | number / viability of cells, MTT assay (cell growth) [2] | knockdown effect on TBC1D7 expression (RT-PCR) (TBC1D7) | number of cells / colonies, colony-formation assay [3] | other results |
| --- | --- | --- | --- | --- | --- |
| RRRRRRRRRRR-GGG-YQLESGKLPRSPSFPLEPDD (RRRRRRRRRRRGGGYQLESGKLPRSPSFPLEPDD; a dominant-negative peptide) [11R-TBC1D7112-131] | no effect on cell growth | – | – | – | – |
| si-TBC1D7-#2: siRNA duplex against human TBC1D7, GAUAAAGUUGUGAGUGGAUUU (SEQ ID NO: 4, target SEQ ID NO: 19), purchased from Dharmacon (chemistry not given here) | – | drastic reduction in the number of cells | knockdown effect was confirmed | drastic reduction in the number of cells | – |
| RRRRRRRRRRRGGGYWITRRFVNQLNTKYRDSLP [11R-TBC1D7152-171] | – | – | – | – | cell viability of normal cells (off-target toxic effect), MTT assay [4]: no effect on cell viability; cell viability of normal cells (off-target toxic effect), MTT assay ([4]; listed as 11R-TBC152-171): no off-target effect |
| RRRRRRRRRRR-GGG-EVFLAIAKAMEEMVEDSVDC (RRRRRRRRRRRGGGEVFLAIAKAMEEMVEDSVDC; a dominant-negative peptide) [11R-TBC1D7132-151] | no effect on cell growth | – | – | – | – |
| si-TBC1D7-#1: siRNA duplex against human TBC1D7, GAACAGUGCAGAGAAGAUAUU (SEQ ID NO: 3, target SEQ ID NO: 18), purchased from Dharmacon (chemistry not given here) | – | drastic reduction in the number of cells | knockdown effect was confirmed | drastic reduction in the number of cells | number of cells in S phase (lung cancer LC319 cells [5]): continuously decreased; proportion of the cells in G2/M phase (lung cancer LC319 cells [5]): increased |
| endogenous TBC1D7 protein (human, lung cancer LC319 cells) (other, Endogenous protein in cell extracts; also called TBC1 domain family, member 7) MTEDSQRNFRSVYYEKVGFRGVEEKKSLEILLKDDRLDTEKLCTFSQRFPLPSMYRALVWKVLLGILPPHHESHAKVMMYRKEQYLDVLHALKVVRFVSDATPQAEVYLRMYQLESGKLPRSPSFPLEPDDEVFLAIAKAMEEMVEDSVDCYWITRRFVNQLNTKYRDSLPQLPKAFEQYLNLEDGRLLTHLRMCSAAPKLPYDLWFKRCFAGCLPESSLQRVWDKVVSGSCKILVFVAVEILLTFKIKVMALNSAEKITKFLENIPQDSSDAIVSKAIDLWHKHCGTPVHSS | – | – | – | – | binding result [6]: binds |
